From US20230286958A1, “PLASMA KALLIKREIN INHIBITORS” (Merck Sharp & Dohme LLC, priority 2020, published 2023)

Assays:
Human plasma kallikrein = Human plasma kallikrein (Homo sapiens (Human), UniProt P03952); assay: Kallikrein Assay (fluorogenic substrate Acetyl-K-P-R-AFC); format: biochemical; settings: Plasma Kallikrein (PKal)
Outline: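 Ki is derived from IC50 with the Cheng-Prusoff equation, and IC50 from the inflection point of a four-parameter logistic curve. The rate of AFC release is read with 0.5 nM purified enzyme and […] substrate at room temperature or 37 °C.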

human Factor XIa = human Factor XIa (Homo sapiens (Human), UniProt P03951); assay: Factor XIa Assay (fluorogenic substrate GPR-AFC); format: biochemical; settings: Factor XIa (FXIa)
human Factor XIa, sequence (P03951 388-625 limits assumed): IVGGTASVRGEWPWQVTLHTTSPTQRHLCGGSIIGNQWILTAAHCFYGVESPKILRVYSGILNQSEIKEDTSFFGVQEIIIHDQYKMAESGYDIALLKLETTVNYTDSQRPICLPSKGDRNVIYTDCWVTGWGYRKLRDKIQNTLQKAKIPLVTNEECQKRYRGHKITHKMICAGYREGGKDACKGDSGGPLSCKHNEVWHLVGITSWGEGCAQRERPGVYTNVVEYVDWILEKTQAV
human Factor XIa, sequence (P03951 19-387 partner limits assumed): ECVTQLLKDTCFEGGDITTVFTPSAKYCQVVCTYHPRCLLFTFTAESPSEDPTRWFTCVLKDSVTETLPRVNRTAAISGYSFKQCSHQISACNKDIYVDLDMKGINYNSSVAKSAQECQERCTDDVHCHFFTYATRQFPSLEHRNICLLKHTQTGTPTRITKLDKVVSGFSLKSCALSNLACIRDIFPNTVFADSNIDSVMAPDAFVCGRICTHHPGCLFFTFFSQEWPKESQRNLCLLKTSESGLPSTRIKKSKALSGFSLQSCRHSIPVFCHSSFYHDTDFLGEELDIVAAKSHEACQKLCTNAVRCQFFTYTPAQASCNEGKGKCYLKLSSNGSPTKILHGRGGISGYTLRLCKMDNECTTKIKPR

Human plasma kallikrein, sequence (P03952 391-638): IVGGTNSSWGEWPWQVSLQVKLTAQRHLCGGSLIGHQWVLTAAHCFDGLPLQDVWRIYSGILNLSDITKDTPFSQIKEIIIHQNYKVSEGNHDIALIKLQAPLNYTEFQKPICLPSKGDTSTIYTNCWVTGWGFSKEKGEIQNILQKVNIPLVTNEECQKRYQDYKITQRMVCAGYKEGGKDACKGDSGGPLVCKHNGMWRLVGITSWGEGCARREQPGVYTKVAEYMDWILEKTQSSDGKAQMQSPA
Human plasma kallikrein, sequence (P03952 20-390 partner): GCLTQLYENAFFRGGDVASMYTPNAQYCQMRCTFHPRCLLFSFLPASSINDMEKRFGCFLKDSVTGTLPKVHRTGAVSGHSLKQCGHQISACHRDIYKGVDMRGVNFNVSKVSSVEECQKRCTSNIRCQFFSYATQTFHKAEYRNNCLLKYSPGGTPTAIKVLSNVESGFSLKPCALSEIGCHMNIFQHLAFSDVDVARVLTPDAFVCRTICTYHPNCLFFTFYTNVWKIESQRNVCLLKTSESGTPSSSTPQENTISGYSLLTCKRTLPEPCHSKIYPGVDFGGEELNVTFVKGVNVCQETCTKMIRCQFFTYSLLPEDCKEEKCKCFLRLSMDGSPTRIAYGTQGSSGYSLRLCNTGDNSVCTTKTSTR

SMILES | IC50 (Human plasma kallikrein) [nM] | IC50 (human Factor XIa) [nM]
Cc1ncc(-c2c(C#N)ccc(Cl)c2F)nc1C(=O)Nc1cnn(C(CO)c2cnc(N3C[C@H]4C[C@H]4C3=O)nc2)c1 (single isomer, unassigned) [Example 166, 6-(3-Chloro-6-cyano-2-fluorophenyl)-N-(1-((R or S)-2-hydroxy-1-(2-((1R,5S)-2-oxo-3-azabicyclo[3.1.0]hexan-3-yl)pyrimidin-5-yl)ethyl)-1H-pyrazol-4-yl)-3-methylpyrazine-2-carboxamide] | 19.7 | > 10000
Cc1ncc(-c2c(C(F)F)ccc(Cl)c2F)nc1C(=O)Nc1cnn(C(C)c2cnc(N3C[C@H]4C[C@H]4C3=O)c(OC(F)F)c2C)c1 (single isomer, unassigned) [Example 224] | 66.1 | > 10000
Cc1ncc(-c2c(C(F)F)ccc(Cl)c2F)nc1C(=O)Nc1cnn(C(C)c2ncc(N3C[C@H]4C[C@H]4C3=O)cn2)c1 (single isomer, unassigned) [Example 6, 6-(3-Chloro-6-(difluoromethyl)-2-fluorophenyl)-3-methyl-N-(1-((R or S)-1-(5-((1R,5S)-2-oxo-3-azabicyclo[3.1.0]hexan-3-yl)pyrimidin-2-yl)ethyl)-1H-pyrazol-4-yl)pyrazine-2-carboxamide] | 0.9 | > 10000
Cc1ccc(Cl)c(F)c1-c1cncc(C(=O)Nc2cnn(C(C)c3cnc(N4C[C@H]5C[C@H]5C4=O)nc3C)c2)n1 (single isomer, unassigned) [Example 108, 6-(3 -Chloro-2-fluoro-6-methylphenyl)-N-(1-((S or R)-1-(4-methyl-2-((1R,5S)-2-oxo-3-azabicyclo[3.1.0]hexan-3-yl)pyrimidin-5-yl)ethyl)-1H-pyrazol-4-yl)pyrazine-2-carboxamide] | 16.6 | > 10000
Cc1c(C(C)n2cc(NC(=O)c3nc(-c4c(C(F)F)ccc(Cl)c4F)cnc3CO)cn2)cnc(N2C[C@H]3C[C@H]3C2=O)c1C (single isomer, unassigned) [Example 202, 6-(3-Chloro-6-(difluoromethyl)-2-fluorophenyl)-N-(1-((R or S)-1-(4,5-dimethyl-6-((1R,5S)-2-oxo-3-azabicyclo[3.1.0]hexan-3-yl)pyridin-3-yl)ethyl)-1H-pyrazol-4-yl)-3-(hydroxymethyl)pyrazine-2-carboxamide] | 0.3 | 11
Cc1cc(N2C[C@H]3C[C@H]3C2=O)ncc1C(C)n1cc(NC(=O)c2nc(-c3c(C(F)F)ccc(Cl)c3F)cnc2CO)cn1 (single isomer, unassigned) [Example 203, 6-(3-Chloro-6-(difluoromethyl)-2-fluorophenyl)-3-(hydroxymethyl)-N-(1-((S or R)-1-(4-methyl-6-((1R,5S)-2-oxo-3-azabicyclo[3.1.0]hexan-3-yl)pyridin-3-yl)ethyl)-1H-pyrazol-4-yl)pyrazine-2-carboxamide] | 0.3 | 282
Cc1cc(N2C[C@H]3C[C@H]3C2=O)ncc1C(C)n1cc(NC(=O)c2cncc(-c3c(C(F)F)ccc(Cl)c3F)n2)cn1 (single isomer, unassigned) [Example 68, 6-(3-Chloro-6-(difluoromethyl)-2-fluorophenyl)-N-(1-((S or R)-1-(4-methyl-6-((1R,5S)-2-oxo-3-azabicyclo[3.1.0]hexan-3-yl)pyridin-3-yl)ethyl)-1H-pyrazol-4-yl)pyrazine-2-carboxamide] | 1.1 | 5250
C=Cc1ncc(-c2c(C(F)F)ccc(Cl)c2F)nc1C(=O)Nc1cnn(Cc2cnc(N3C[C@H]4C[C@H]4C3=O)nc2C)c1 [Example 35, 6-(3-Chloro-6-(difluoromethyl)-2-fluorophenyl)-N-(1-((4-methyl-2-((1R,5S)-2-oxo-3-azabicyclo[3.1.0]hexan-3-yl)pyrimidin-5-yl)methyl)-1H-pyrazol-4-yl)-3-vinylpyrazine-2-carboxamide] | 6.8 | 4940
CC(c1cnc(N2C[C@H]3C[C@H]3C2=O)c(F)c1)n1cc(NC(=O)c2nc(-c3c(C(F)F)ccc(Cl)c3F)cnc2COC(C)(C)C)cn1 (single isomer, unassigned) [Example 143, 3-(tert-Butoxymethyl)-6-(3-chloro-6-(difluoromethyl)-2-fluorophenyl)-N-(1-((S or R)-1-(5-fluoro-6-((1R,5S)-2-oxo-3-azabicyclo[3.1.0]hexan-3-yl)pyridin-3-yl)ethyl)-1H-pyrazol-4-yl)pyrazine-2-carboxamide] | 4.9 | 4310
Cc1nc(N2C[C@H]3C[C@H]3C2=O)ncc1Cn1cc(NC(=O)c2nc(-c3c(OC(F)F)ccc(Cl)c3F)cnc2C)cn1 [Example 36, 6-(3-Chloro-6-(difluoromethoxy)-2-fluorophenyl)-3-methyl-N-(1-((4-methyl-2-((1R,5S)-2-oxo-3-azabicyclo[3.1.0]hexan-3-yl)pyrimidin-5-yl)methyl)-1H-pyrazol-4-yl)pyrazine-2-carboxamide] | 3 | 609
Cc1ncc(-c2c(C(F)F)ccc(Cl)c2F)nc1C(=O)Nc1cnn(Cc2ncc(N3C[C@H]4C[C@H]4C3=O)cc2F)c1 [Example 138, 6-(3-Chloro-6-(difluoromethyl)-2-fluorophenyl)-N-(1-((3-fluoro-5-((1R,5S)-2-oxo-3-azabicyclo[3.1.0]hexan-3-yl)pyridin-2-yl)methyl)-1H-pyrazol-4-yl)-3-methylpyrazine-2-carboxamide] | 47 | > 10000
COc1c(N2C[C@H]3C[C@H]3C2=O)ncc(C(C)n2cc(NC(=O)c3cncc(-c4c(C(F)F)ccc(Cl)c4F)n3)cn2)c1C (single isomer, unassigned) [Example 155, 6-(3-Chloro-6-(difluoromethyl)-2-fluorophenyl)-N-(1-((S or R)-1-(5-methoxy-4-methyl-6-((1R,5S)-2-oxo-3-azabicyclo[3.1.0]hexan-3-yl)pyridin-3-yl)ethyl)-1H-pyrazol-4-yl)pyrazine-2-carboxamide] | 7.1 | 8200
COc1cc(C(C)n2cc(NC(=O)c3nc(-c4c(C(F)F)ccc(Cl)c4F)cnc3C)cn2)cnc1N1C[C@H]2C[C@H]2C1=O (single isomer, unassigned) [Example 219, 6-(3-Chloro-6-(difluoromethyl)-2-fluorophenyl)-N-(1-((R or S)-1-(5-methoxy-6-((1R,5S)-2-oxo-3-azabicyclo[3.1.0]hexan-3-yl)pyridin-3-yl)ethyl)-1H-pyrazol-4-yl)-3-methylpyrazine-2-carboxamide] | 0.3 | 549
C[C@@H](c1cnc(N2C[C@H]3C[C@H]3C2=O)nc1N)n1cc(NC(=O)c2cncc(-c3c(C(F)F)ccc(Cl)c3F)n2)cn1 [Example 171, N-(1-((S)-1-(4-Amino-2-((1R,5S)-2-oxo-3-azabicyclo[3.1.0]hexan-3-yl)pyrimidin-5-yl)ethyl)-1H-pyrazol-4-yl)-6-(3-chloro-6-(difluoromethyl)-2-fluorophenyl)pyrazine-2-carboxamide] | 713 | > 10000
CC(c1cnc(N2CC3CC3C2=O)nc1)n1cc(NC(=O)c2cncc(-c3c(OC(F)F)ccc(Cl)c3F)n2)cn1 (single isomer, unassigned) [Example 73, 6-(3-Chloro-6-(difluoromethoxy)-2-fluorophenyl)-N-(1-((S or R)-1-(2-((1S,5R or 1R,5S)-2-oxo-3-azabicyclo[3.1.0]hexan-3-yl)pyrimidin-5-yl)ethyl)-1H-pyrazol-4-yl)pyrazine-2-carboxamide] | 23.1 | 2270
Cc1nc(N2C[C@H]3C[C@H]3C2=O)ncc1Cn1cc(NC(=O)c2nc(-c3c(C(F)F)ccc(Cl)c3F)cnc2C)cn1 [Example 33, 6-(3-Chloro-6-(difluoromethyl)-2-fluorophenyl)-3-methyl-N-(1-((4-methyl-2-((1R,5S)-2-oxo-3-azabicyclo[3.1.0]hexan-3-yl)pyrimidin-5-yl)methyl)-1H-pyrazol-4-yl)pyrazine-2-carboxamide] | 2.5 | 875
Cc1nc(N2C[C@H]3C[C@H]3C2=O)ncc1[C@@H](C)n1cc(NC(=O)c2cncc(-c3c(C(F)F)ccc(Cl)c3F)n2)cn1 [Example 23, 6-(3-Chloro-6-(difluoromethyl)-2-fluorophenyl)-N-(1-((R)-1-(4-methyl-2-((1R,5S)-2-oxo-3-azabicyclo[3.1.0]hexan-3-yl)pyrimidin-5-yl)ethyl)-1H-pyrazol-4-yl)pyrazine-2-carboxamide] | 48.7 | 7600
Cc1c(C(C)n2cc(NC(=O)c3cncc(-c4c(OC(F)F)ccc(Cl)c4F)n3)cn2)cnc(N2C[C@H]3C[C@H]3C2=O)c1C (single isomer, unassigned) [Example 105, 6-(3-Chloro-6-(difluoromethoxy)-2-fluorophenyl)-N-(1-((R or S)-1-(4,5-dimethyl-6-((1R,5S)-2-oxo-3-azabicyclo[3.1.0]hexan-3-yl)pyridin-3-yl)ethyl)-1H-pyrazol-4-yl)pyrazine-2-carboxamide] | 0.6 | 101
Cc1ncc(-c2c(C(F)F)ccc(Cl)c2F)nc1C(=O)Nc1cnn(C(C)c2cnc(N3CCC(O)C3=O)nc2)c1 (single isomer, unassigned) [Example 87, 6-(3-Chloro-6-(difluoromethyl)-2-fluorophenyl)-N-(1-((S or R)-1-(2-((R or S)-3-hydroxy-2-oxopyrrolidin-1-yl)pyrimidin-5-yl)ethyl)-1H-pyrazol-4-yl)-3-methylpyrazine-2-carboxamide] | 26.2 | > 10000
Cc1cc(N2C[C@H]3C[C@H]3C2=O)ncc1Cn1cc(NC(=O)c2cncc(-c3c(C(F)F)ccc(Cl)c3F)n2)cn1 [Example 57, 6-(3-Chloro-6-(difluoromethyl)-2-fluorophenyl)-N-(1-((4-methyl-6-((1R,5S)-2-oxo-3-azabicyclo[3.1.0]hexan-3-yl)pyridin-3-yl)methyl)-1H-pyrazol-4-yl)pyrazine-2-carboxamide] | 4.9 | 1890
